# Laboratory results published in ChEMBL document CHEMBL1201862, “PubChem BioAssay data set” (2004).
#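 Tested at 5 concentrations; 48 h exposure; 96-well plates; endpoints linearly interpolated, else capped at highest concentration. GI50 = concentration required for 50% inhibition of growth.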 Activity calls are given as the source filed them. Rule as the data show it: active = GI50 up to about 1.1 µM and inactive = higher.
# Key:
# Assay in all cases: NCI tumour cell line growth inhibition, 48 h
# 786-0 = system: 786-0
# A498 = system: A498
# A549 = system: A549
# ACHN = system: ACHN
# BT-549 = system: BT-549
# CAKI-1 = system: CAKI-1
# CCRF-CEM = system: CCRF-CEM
# COLO 205 = system: COLO 205
# DU-145 = system: DU-145
# EKVX = system: EKVX
# HCC 2998 = system: HCC 2998
# HCT-116 = system: HCT-116
# HCT-15 = system: HCT-15
# HL-60 = system: HL-60
# HOP-62 = system: HOP-62
# HOP-92 = system: HOP-92
# HT-29 = system: HT-29
# Hs-578T = system: Hs-578T
# IGROV-1 = system: IGROV-1
# KM12 = system: KM12
# LOX IMVI = system: LOX IMVI
# M14 = system: M14
# MCF7 = system: MCF7
# MDA-MB-231 = system: MDA-MB-231
# MDA-MB-435 = system: MDA-MB-435
# MDA-N = system: MDA-N
# MOLT-4 = system: MOLT-4
# Malme-3M = system: Malme-3M
# NCI-H226 = system: NCI-H226
# NCI-H23 = system: NCI-H23
# NCI-H460 = system: NCI-H460
# NCI-H522 = system: NCI-H522
# NCI/ADR-RES = system: NCI/ADR-RES
# OVCAR-3 = system: OVCAR-3
# OVCAR-4 = system: OVCAR-4
# OVCAR-5 = system: OVCAR-5
# OVCAR-8 = system: OVCAR-8
# PC-3 = system: PC-3
# RPMI-8226 = system: RPMI-8226
# RXF 393 = system: RXF 393
# SF-268 = system: SF-268
# SF-295 = system: SF-295
# SF-539 = system: SF-539
# SK-MEL-28 = system: SK-MEL-28
# SK-MEL-2 = system: SK-MEL-2
# SK-MEL-5 = system: SK-MEL-5
# SK-OV-3 = system: SK-OV-3
# SN12C = system: SN12C
# SNB-19 = system: SNB-19
# SNB-75 = system: SNB-75
# SR = system: SR
# SW-620 = system: SW-620
# T47D = system: T47D
# TK-10 = system: TK-10
# U-251 = system: U-251
# UACC-257 = system: UACC-257
# UACC-62 = system: UACC-62
compound,measurement,setting,value
CC1(C)C(c2ccccc2)=[N+]([O-])C(C)(C)N1O,GI50,786-0,> 10 µM (inactive)
same,GI50,A498,> 10 µM (inactive)
same,GI50,A549,> 10 µM (inactive)
same,GI50,ACHN,> 10 µM (inactive)
same,GI50,BT-549,> 10 µM (inactive)
same,GI50,CAKI-1,> 10 µM (inactive)
same,GI50,CCRF-CEM,> 10 µM (inactive)
same,GI50,COLO 205,> 10 µM (inactive)
same,GI50,DU-145,> 10 µM (inactive)
same,GI50,EKVX,> 10 µM (inactive)
same,GI50,HCC 2998,> 10 µM (inactive)
same,GI50,HCT-116,> 10 µM (inactive)
same,GI50,HCT-15,> 10 µM
same,GI50,HL-60,> 10 µM (inactive)
same,GI50,HOP-62,> 10 µM (inactive)
same,GI50,HOP-92,> 10 µM (inactive)
same,GI50,HT-29,> 10 µM (inactive)
same,GI50,Hs-578T,> 10 µM (inactive)
same,GI50,IGROV-1,> 10 µM (inactive)
same,GI50,KM12,> 10 µM (inactive)
same,GI50,LOX IMVI,> 10 µM (inactive)
same,GI50,M14,> 10 µM (inactive)
same,GI50,MCF7,> 10 µM (inactive)
same,GI50,MDA-MB-231,> 10 µM (inactive)
same,GI50,MDA-MB-435,> 10 µM (inactive)
same,GI50,MDA-N,> 10 µM (inactive)
same,GI50,MOLT-4,> 10 µM (inactive)
same,GI50,Malme-3M,> 10 µM (inactive)
same,GI50,NCI-H226,> 10 µM (inactive)
same,GI50,NCI-H23,> 10 µM (inactive)
same,GI50,NCI-H460,> 10 µM (inactive)
same,GI50,NCI-H522,> 10 µM (inactive)
same,GI50,NCI/ADR-RES,> 10 µM (inactive)
same,GI50,OVCAR-3,> 10 µM (inactive)
same,GI50,OVCAR-4,> 10 µM (inactive)
same,GI50,OVCAR-5,> 10 µM (inactive)
same,GI50,OVCAR-8,> 10 µM (inactive)
same,GI50,PC-3,> 10 µM (inactive)
same,GI50,RPMI-8226,> 10 µM (inactive)
same,GI50,RXF 393,> 10 µM (inactive)
same,GI50,SF-268,> 10 µM (inactive)
same,GI50,SF-295,> 10 µM (inactive)
same,GI50,SF-539,> 10 µM (inactive)
same,GI50,SK-MEL-28,> 10 µM (inactive)
same,GI50,SK-MEL-2,> 10 µM (inactive)
same,GI50,SK-MEL-5,> 10 µM (inactive)
same,GI50,SK-OV-3,> 10 µM (inactive)
same,GI50,SN12C,> 10 µM (inactive)
same,GI50,SNB-19,> 10 µM (inactive)
same,GI50,SNB-75,> 10 µM (inactive)
same,GI50,SR,> 10 µM (inactive)
same,GI50,SW-620,> 10 µM (inactive)
same,GI50,T47D,> 10 µM (inactive)
same,GI50,TK-10,> 10 µM (inactive)
same,GI50,U-251,> 10 µM (inactive)
same,GI50,UACC-257,> 10 µM (inactive)
same,GI50,UACC-62,> 10 µM (inactive)
